Measurements reported in US5593970A, “Heterocyclic anthracycline analogs” (priority 1994, dated 1997).
Values joined by “and” are separate entries in the source; they are usually repeats but may differ in a detail not shown here. Equal values may be shown once. Where a name gives a salt, the structure may show the parent alone. Read-outs that look alike come from different tables or passages of the source.

Assays:
Test in all cases: Microculture tetrazolium assay
Format in all cases: cell-based
SKVLB = conditions: for VLB/OV3: IC50 ratio SKVLB/SKOV3; for IC50: SKVLB
HT29 = conditions: read-out: IC50
SKOV3 = conditions: Homo sapiens, SK-OV-3, SKOV3; read-out: IC50

Row | SMILES | IC50 (SKVLB; read-out: IC50) [nM] | IC50 (HT29; Homo sapiens, HT-29, HT29) [nM] | VLB/OV3 (SKVLB) | IC50 (SKOV3) [nM] | also measured
1 | CC(=O)C1Cc2c(O)c3c(c(O)c2C(O[C@H]2C[C@H](N)[C@H](O)[C@H](C)O2)O1)C(=O)c1ccccc1C3=O (mixture of isomers) [BCH-1130, (1'S,1S,3R) and (1'S,1R,3S)-Methyl-[5,12-dihydroxy-1-(2',3',6'-trideoxy-3'-amino-4'-hydroxy-L-lyxohexopyranose)-6,11-dioxo-3,4,6,11-tetrahydroanthraceno-(2,3-C)pyran-3-yl]ketone hydrochloride] | 573 | 170 | – | – | VLB/OV3 (SKVLB; hydrochloride): 21.87 and 19.04; IC50 (SKVLB; hydrochloride, read-out: IC50): 1030 nM; IC50 (HT29; HT29, hydrochloride): 127 nM
2 | CC(=O)C1Cc2c(O)c3c(c(O)c2C(O[C@H]2C[C@H](N4CCOCC4)[C@H](O)[C@H](C)O2)O1)C(=O)c1ccccc1C3=O (mixture of isomers) [BCH-1191, (1'S,1R,3S) and (1'S,1S,3R)-Methyl(1-(2',3',6'-trideoxy-3'-morpholino-L-lyxohexopyranose)-6,11-dioxo-5,12-dihydroxy-3,4,6,11-tetrahydroanthraceno[2,3-c]pyran-3-yl)ketone] | – | – | 3.57 | – | IC50 (SKVLB): 1050 nM
3 | C[C@@H]1O[C@@H](O[C@@H]2O[C@@H](C(=O)C(C)(C)C)CC3=C2C(=O)c2cc4ccccc4c(O)c2C3=O)C[C@H](NC(=O)C(F)(F)F)[C@@H]1O (mixture of isomers) [BCH-2197, (1'S, 1S,3S) and (1'S,1R, 3R)-tert-butyl-(6-hydroxy-1-(2',3',6'-trideoxy-3'-trifluoroacetamido-4-hydroxy-L-lyxohexopyranose)-5,12-dioxo-3,4,5,12-tetrahydroanthraceno-[2,3-c]-pyran-3-yl)-ketone] | 3020 | 520 | 1.09 | 2770 | –
4 | C[C@@H]1O[C@@H](O[C@H]2O[C@H](C(=O)C(C)(C)C)CC3=C2C(=O)c2cc4ccccc4c(O)c2C3=O)C[C@H](NC(=O)C(F)(F)F)[C@@H]1O (mixture of isomers) [BCH-2198, (1'S, 1S,3S) and (1'S,1R, 3R)-tert-butyl-(6-hydroxy-1-(2',3',6'-trideoxy-3'-trifluoroacetamido-4-hydroxy-L-lyxohexopyranose)-5,12-dioxo-3,4,5,12-tetrahydroanthraceno-[2,3-c]-pyran-3-yl)-ketone] | 4150 | 2410 | 0.94 | 4400 | –
5 | CCC1Cc2c(O)c3c(c(O)c2C(C[C@H]2C[C@H](N)[C@H](O)[C@H](C)O2)O1)C(=O)c1ccccc1C3=O (mixture of isomers) [BCH-2817, (1'S,2'R, 3'S,5'R, 1S,3R) and (1'S,2'R, 3'S,5'R, 1R, 3S)-1-(3-amino-2-hydroxy-1-methyltetrahydropyran-5-yl)methyl-3-ethyl-5,12-dihydroxy-6,11-dioxo-3,4,6,11-tetrahydroanthraceno-[2,3-c]pyran hydrochloride] | 11000 | 3530 | 6.59 | 1670 | –
6 | CC(=O)[C@H]1CC2=C(C(=O)c3cc4ccccc4c(O)c3C2=O)[C@H](O[C@H]2C[C@H](N)[C@H](O)[C@H](C)O2)O1 [BCH-1127] | – | – | 1.87 and 3.24 | – | –
7 | CC(=O)O[C@@H]1[C@H](C)O[C@@H](O[C@H]2S[C@H](C(C)=O)CC3=C2C(=O)c2cc4ccccc4c(O)c2C3=O)C[C@@H]1OC(C)=O [BCH-1671] | – | – | 0.82 and 1.00 | – | –
8 | C=CC[C@H]1Cc2c(O)c3c(c(O)c2[C@H](O[C@H]2C[C@H](N)[C@H](O)[C@H](C)O2)O1)C(=O)c1ccccc1C3=O [BCH-2106, (1'S,1S,3S)-3-(5,12-dihydroxy-1-(2',3',6'-trideoxy-3'-amino-4'-hydroxy-L-lyxohexopyranose)-6,11-dioxo-3,4,5,12-tetrahydroanthraceno-[2,3-c]pyran-3-yl)propene hydrochloride] | – | – | – | 148 | –
